The values below come from patent US5480645A, “Hydroxyamines N-acyl derivatives having scavenger activity and useful in acute and chronic pathologies associated with peroxidation and inflammation phenomena” (LifeGroup S.p.A., priority 1992, dated 1996).

Series [1] concerns rat liver microsomes (membrane phospholipid peroxidation). Description: Antiperoxidative activity on rat liver microsomes, cumene hydroperoxide induced peroxidation (MDA formation). It counts as biochemical. As to conditions: 0.5 mM cumene hydroperoxyde, Table 3; for MDA: control 12.8. The procedure: b) 20 mM Hepes-Tris buffer pH=7.4, 0.5 mM cumene hydroperoxide in the presence or in the absence of the compounds to be tested. […] Subsequently the incubation is carried out for 15' at 90° C. in order to allow the development of the coloured adduct.
(§1) A common oxidation product, malonyldialdehyde (MDA), to the two oxidant systems described in (a) and in (b), is measured.
The tested compounds are solubilized in the culture medium up to the desired concentrations (see tables 1-3).
As peroxidant agent 0.5 mM cumene hydroperoxyde is used. As oxidation index the formation of malonyldialdehyde (MDA) is measured (nmoles/mg protein).
For orientation: Liver microsomes are vesicles of endoplasmic reticulum, rich in cytochrome P450 enzymes.

Series [2] shares this test system. Description: Antiperoxidative activity on rat liver microsomes, NADPH/Fe+2/ADP induced peroxidation (MDA formation). It counts as biochemical. The procedure: Before the final resuspension mitochondria ape washed with 0.125M KCl containing 15 mM Hepes/10 mM tris at pH=7.4. Rat liver microsomes are prepared as described by Ernster and Nordenbrand (Ernster, Nordenbrand K. Methods Enzymol. 1967, 10:574-80). […]
b) 20 mM Hepes-Tris buffer pH=7.4, 0.5 mM cumene hydroperoxide in the presence or in the absence of the compounds to be tested. The trials after incubation are interrupted with 1 ml 35% TCA which 30 mg BHT and 1 ml 1% TBA (thiobarbituric acid) have been added to. Subsequently the incubation is carried out for 15' at 90° C. in order to allow the development of the coloured adduct.
as §1
The formed MDA is evaluated by spectrophotometry at 532 nm and calculated by using a molar extinction coefficient of 156.000 (Buege J. A. and Aust S. D., Methods Enzymol., 52, 302-310, 1978).
The tested compounds are solubilized in the culture medium up to the desired concentrations (see tables 1-3). […]
The antiperoxidase activity is measured as % of inhibition of malonyldialdehyde formation.

The subject of series [3] is granular cerebellar cells. The series can be described thus: Protection against 2 mM glutamate cytotoxicity in immature granular cerebellar cell cultures.
The next series concerns C6 glioma cells. The series can be described thus: Protection against 5 mM glutamate cytotoxicity in glioma C6 cultures.
The nature of another series: Solubility. Particulars: for solubility: organic solvent or mixture, in ethanol, read-out: solubility in org. solv. The class given is physicochemical.
For series [4], the system named is rat cerebellar granular cells. Description: Protection against glutamate neurotoxicity in rat cerebellar granular cell cultures. The class given is cell-based. Particulars: glutamate alone, 50 μM; Table 4; control 100; 1440 min. The procedure: Primary cerebellar granular cell cultures are prepared from 8 days old Sprague-Dawly rats. Neurons are grown on 35 mm plates for 7-8 days. […] Glial cells proliferation is prevented by cytosine arabinose-furanoside.
Cells are washed in Locke solution free from Mg^2+ then replated in the conditionned culture medium.
The solution is diluted serially up to 10, 20 and 50 μM. The compounds at the desired concentrations are added to the cells at 37 ° C.; after 15' 50 μM glutamate free from Mg^2+ is added For 15 minutes at 22 ° C.
The cells are then washed 3 times with Locke solution, then added to the original culture medium and maintained at 37 ° C. in 5 % CO2 for 24 hours.
The cellular survival is measured by using a fluorescence microscope.

Setting [5] is: 10 μM, NADPH/Fe+2/ATP, Table 1-A.
Setting [6] is: 10 μM, NADPH/Fe+2/ATP, Table 1-A, control 42.5.
The mark [7] stands for this setting: 20 μM, NADPH/Fe+2/ATP, Table 1-A.
Where [8] appears, read: 20 μM, NADPH/Fe+2/ATP, Table 1-A, control 42.5.
The mark [9] stands for this setting: Mus musculus, 24 h, read-out: % Cellular survival.
Setting [10] is: Rattus norvegicus, C6 glioma, 24 h, read-out: % Cell survival.

SMILES strings stand for the structures. Like-named read-outs stand apart in the source and are kept apart here. Bounds are passed on as bounds.

In general, solubility refers to how much of the substance goes into solution per volume.

Turning to `Cc1c(C)c2c(c(C)c1O)CC(CC(=O)O)O2` (stereo not drawn) [5-hydroxy-4,6,7-trimethyl-2,3-dihydrobenzofuran-2-acetic acid, reference compound], the peroxidation inhibition came to 28% in series [1] (20 μM), 42% in series [1] (50 μM), 0% in series [2] (setting [5]) and 12% in series [2] (setting [7]). Besides, the MDA is 9.25 nmoles/mg prot in series [1] (20 μM), 7.5 nmoles/mg prot in series [1] (50 μM), 44.19 nmoles/mg prot in series [2] (setting [6]) and 37.3 nmoles/mg prot in series [2] (setting [8]).
For the compound `Cc1c(C)c2c(c(C)c1O)CCC(C)(C(=O)O)O2` (stereo not drawn) [6-hydroxy-2,5,7,8-tetramethylchroman-2-carboxylic acid, reference compound], in series [3] (setting [9]), the viability at 10 µM stood at 43%, the viability at 50 µM amounted to 54% and the viability at 100 µM amounted to 84%. Besides, in the series with C6 glioma cells (setting [10]), the viability at 10 µM was found to be 7%, the viability at 30 µM stood at 37% and the viability at 100 µM amounted to 94%.
Consider `CC(=O)OCCNC(=O)C1(C)CCc2c(C)c(OC(C)=O)c(C)c(C)c2O1` (stereo not drawn) [Example 3, 6-acetoxy-2,5,7,8-tetramethyl-chroman-2-(2-acetoxyethyl)-carboxyamide], for which the solubility in “Solubility” is over 10000 µg/mL. For the same compound, the water solubility entry in “Solubility” is “slightly soluble”. Also, the “peroxidation inhibition” value is 23.1% in series [2] (2.5 μM, Table 1-B, third series); 41.6% in series [2] (5 μM, Table 1-B, third series); 53.8% in series [2] (10 μM, Table 1-B, third series); 62.1% in series [2] (20 μM, Table 1-B, third series). For the same compound, the MDA is 28.8 nmoles/mg/protein in series [2] (2.5 μM, Table 1-B, third series (control 37.4)); 21.8 nmoles/mg/protein in series [2] (5 μM, Table 1-B, third series (control 37.4)); 17.2 nmoles/mg/protein in series [2] (10 μM, Table 1-B, third series (control 37.4)); 14.1 nmoles/mg/protein in series [2] (20 μM, Table 1-B, third series (control 37.4)). In addition, the viability at 1 µM was 49% in series [3] (setting [9]) and 17% with C6 glioma cells (setting [10]). The viability at 10 µM in series [3] (setting [9]) is 60%; with C6 glioma cells (setting [10]), 82%. Further, the viability at 30 µM in series [3] (setting [9]) stood at 77%. For the same compound, the viability at 3 µM in the series on C6 glioma cells (setting [10]) is 40%.
Consider `Cc1c(C)c2c(c(C)c1O)CCC(C)(C(=O)NCCCO)O2` (stereo not drawn) [Example 4, N-(6-hydroxy-2,5,7,8-tetramethylchroman-2-carboxyl)-propanolamine], for which the solubility in the series “Solubility” (DMSO, chloroform) was over 10000 µg/mL. In addition, the water solubility entry in “Solubility” is “slightly soluble”. Moreover, the “peroxidation inhibition” value in series [2] (10 μM, Table 1-B, first series) is 37%; in series [2] (20 μM, Table 1-B, first series) it was 95.5%; in series [2] (40 μM, Table 1-B, first series), 97.7%; in series [2] (60 μM, Table 1-B, first series), 97.7%; in series [2] (80 μM, Table 1-B, first series) it was 97.7%; in series [2] (100 μM, Table 1-B, first series), 99.3%. The MDA in series [2] (10 μM, Table 1-B, first series (control 46.27)) is reported as 28.96 nmoles/mg/protein; in series [2] (20 μM, Table 1-B, first series (control 46.27)), 1.61 nmoles/mg/protein; in series [2] (40 μM, Table 1-B, first series (control 46.27)), 1.07 nmoles/mg/protein; in series [2] (60 μM, Table 1-B, first series (control 46.27)), 1.04 nmoles/mg/protein; in series [2] (80 μM, Table 1-B, first series (control 46.27)), 1.07 nmoles/mg/protein; in series [2] (100 μM, Table 1-B, first series (control 46.27)), 0.30 nmoles/mg/protein. In addition, the figures for the viability at 1 µM (in series [3] (setting [9]); with C6 glioma cells (setting [10])) were 39% and 10%, respectively. The viability at 3 µM in series [3] (setting [9]) is 60%; with C6 glioma cells (setting [10]), 94%. Moreover, the viability at 10 µM was determined as 77% in series [3] (setting [9]) and 90% in the series on C6 glioma cells (setting [10]).
As to `Cc1c(C)c2c(c(C)c1O)CC(CC(=O)NCCCO)O2` (stereo not drawn) [Example 5, N-[2-(2,3-dihydro-5-hydroxy-4,6,7-trimethylbenzofuran)-acetyl]-propanolamine], the solubility in the series “Solubility” (DMSO, chloroform) is over 10000 µg/mL. Moreover, the water solubility entry in “Solubility” is “slightly soluble”. In addition, the “peroxidation inhibition” value in series [2] (10 μM, Table 1-B, second series) turned out to be 24.0 ± 1.0%; in series [2] (20 μM, Table 1-B, second series) it was 58.0 ± 7.0%; in series [2] (40 μM, Table 1-B, second series), 94.0 ± 3.0%; in series [2] (60 μM, Table 1-B, second series), 95.0 ± 3.0%; in series [2] (80 μM, Table 1-B, second series), 94.0 ± 3.0%. In addition, the MDA in series [2] (10 μM, Table 1-B, second series (control 42.50 ± 2.4)) was 32.32 ± 0.4 nmoles/mg/protein; in series [2] (20 μM, Table 1-B, second series (control 42.50 ± 2.4)) it was 17.87 ± 2.9 nmoles/mg/protein; in series [2] (40 μM, Table 1-B, second series (control 42.50 ± 2.4)) it was 2.57 ± 1.3 nmoles/mg/protein; in series [2] (60 μM, Table 1-B, second series (control 42.50 ± 2.4)) it was 2.10 ± 1.2 nmoles/mg/protein; in series [2] (80 μM, Table 1-B, second series (control 42.50 ± 2.4)), 2.54 ± 1.3 nmoles/mg/protein. For the same compound, the viability at 1 µM is 52% in series [3] (setting [9]) and 8% with C6 glioma cells (setting [10]). In addition, the viability at 10 µM in series [3] (setting [9]) turned out to be 83%; with C6 glioma cells (setting [10]) it was 91%. Besides, the viability at 30 µM in series [3] (setting [9]) stood at 86%. Besides, the viability at 3 µM with C6 glioma cells (setting [10]) is 66%.
In the case of `N[C@@H](CCC(=O)O)C(=O)O` [Glutamate, reference compound], the cell death in series [3] (2 mM glutamate for 24 hours, immature granular cerebellar cells) is recorded as 60+70%. In series [3] (glutamate alone, 2 mM, 24 hours, Table 6), the “% Cellular survival” value stood at 30%. In series [4], this compound registered a cell survival of 3%. The compound also came in with a cellular degeneration in the series with C6 glioma cells (5 mM glutamate for 24 hours) of 90%. In addition, the “% Cell survival” value in the series with C6 glioma cells (glutamate alone, 5 mM, 24 hours, Table 5) was determined as 7%.
With `CC(=O)Oc1c(C)c(C)c2c(c1C)CCC(C)(CCC[C@H](C)CCC[C@H](C)CCCC(C)C)O2` (stereo partly drawn) [Vit. E acetate, reference compound], the peroxidation inhibition in series [1] (20 μM) is listed as 0%; in series [1] (50 μM), 0%; in series [2] (setting [5]), 0%; in series [2] (setting [7]), 0%; in series [2] (40 μM, preincubation time 0 minutes, ADP/NADPH/Fe, Table 2) it was 1.90%; in series [2] (40 μM, preincubation time 15 minutes, ADP/NADPH/Fe, Table 2) it was 18.20%. For the same compound, the peroxidation inhibition in series [2] (40 μM, preincubation time 30 minutes, ADP/NADPH/Fe, Table 2) came to 28.95%; in series [2] (40 μM, preincubation time 45 minutes, ADP/NADPH/Fe, Table 2), 35.80%; in series [2] (40 μM, preincubation time 60 minutes, ADP/NADPH/Fe, Table 2), 40.35%. For the same compound, the MDA in series [1] (20 μM) was 14.29 nmoles/mg prot; in series [1] (50 μM), 11.57 nmoles/mg prot; in series [2] (setting [6]), 51.08 nmoles/mg prot; in series [2] (setting [8]), 49.34 nmoles/mg prot. For the same compound, the “inhibition of the peroxidation induced by NADPH/Fe+2/ADP (in words)” value in series [2] (in vitro, 10 to 50 μM dose/effect relationship for the test compound) is “inactive in the in-vitro systems”.
